According to PMC10325911 (2023):

Experiments:
[1] = tested on: FMR1 (RNA, G4) GGAGGGGGAGGAAGAGGACAAGGAGGAAGAGG; assay: fluorescence polarization titration; conditions: no or very weak binding response, group statement for all four RNAs
[2] = tested on: 4G3U3 (RNA, G4) GGGUUUGGGUUUGGGUUUGGG; assay: CD melting; conditions: K+ 5 mM; Tris 10 mM pH 7.2, DBI 10 μM, oligonucleotide 2 μM, DMSO 2%
[3] = tested on: c-MYC Pu24T (DNA, G4) TGAGGGTGGTGAGGGTGGGGAAGG; assay: CD melting; conditions: K+ 5 mM; Tris 10 mM pH 7.2, DBI 10 μM, oligonucleotide 2 μM, DMSO 2%
[4] = tested on: ds-DNA HIF-1α (DNA, duplex) GCGCGGGGAGGGGAGAGGGGGCGGGAGCGCG/CGCGCTCCCGCCCCCTCTCCCCTCCCCGCGC; assay: CD melting; conditions: K+ 5 mM; Tris 10 mM pH 7.2, DBI 10 μM, oligonucleotide 2 μM, DMSO 2%
[5] = tested on: c-MYC Pu22 (DNA, G4) TGAGGGTGGGTAGGGTGGGTAA; assay: fluorescence polarization titration; conditions: K+ 100 mM; Tris 50 mM pH 7.2, DBI 1 μM, DMSO 1%, DNA 0-10 μM
[6] = tested on: c-MYC Pu22 (DNA, G4) TGAGGGTGGGTAGGGTGGGTAA; assay: CD melting; conditions: K+ 5 mM; Tris 10 mM pH 7.2, DBI 10 μM, oligonucleotide 2 μM, DMSO 2%
[7] = tested on: sc ds-RNA (RNA, duplex) CAAUCGGAUCGAAUUCGAUCCGAUUG; assay: fluorescence polarization titration; conditions: no or very weak binding response, group statement for all four RNAs
[8] = tested on: mut HIF-1α (DNA, single strand) GCGCGGCGAGCGGAGAGGGCGCGCGAGCGCG; assay: fluorescence polarization titration; conditions: K+ 100 mM; Tris 50 mM pH 7.2, DBI 1 μM, DMSO 1%, DNA up to 10 μM
[9] = tested on: Bom17 (DNA, G4) GGTTAGGTTAGGTTAGG; assay: CD melting; conditions: K+ 5 mM; Tris 10 mM pH 7.2, DBI 10 μM, oligonucleotide 2 μM, DMSO 2%
[10] = tested on: TERRA (RNA, G4) UUAGGGUUAGGGUUAGGGUUAGGG; assay: fluorescence polarization titration; conditions: no or very weak binding response, group statement for all four RNAs
[11] = tested on: sc ds-DNA (DNA, duplex) CAATCGGATCGAATTCGATCCGATTG; assay: fluorescence polarization titration; conditions: K+ 100 mM; Tris 50 mM pH 7.2, DBI 1 μM, DMSO 1%, DNA up to 10 μM
[12] = tested on: 4G3U3 (RNA, G4) GGGUUUGGGUUUGGGUUUGGG; assay: fluorescence polarization titration; conditions: no or very weak binding response, group statement for all four RNAs
[13] = tested on: Tel-22 (DNA, G4) AGGGTTAGGGTTAGGGTTAGGG; assay: CD melting; conditions: K+ 5 mM; Tris 10 mM pH 7.2, DBI 10 μM, oligonucleotide 2 μM, DMSO 2%
[14] = tested on: C-rich HIF-1α (DNA, single strand) CGCGCTCCCGCCCCCTCTCCCCTCCCCGCGC; assay: fluorescence polarization titration; conditions: K+ 100 mM; Tris 50 mM pH 7.2, DBI 1 μM, DMSO 1%, DNA up to 10 μM
[15] = tested on: sc ds-DNA (DNA, duplex) CAATCGGATCGAATTCGATCCGATTG; assay: CD melting; conditions: K+ 5 mM; Tris 10 mM pH 7.2, DBI 10 μM, oligonucleotide 2 μM, DMSO 2%
[16] = tested on: HIF-1α (DNA, G4) GCGCGGGGAGGGGAGAGGGGGCGGGAGCGCG; assay: fluorescence polarization titration; conditions: K+ 100 mM; Tris 50 mM pH 7.2, DBI 1 μM, DMSO 1%, DNA 0-10 μM

- binding [1]: weak
- ΔTm [2]: 0.6 °C
- ΔTm [3]: 3.3 °C
- ΔTm [4]: 2 °C
- Ka [5]: 4.5 × 10^5 ± 1.1 M^−1
- ΔTm [6]: 7.3 °C
- binding [7]: weak
- binding [8]: no
- ΔTm [9]: -0.1 °C
- binding [10]: weak
- binding [11]: no
- binding [12]: weak
- ΔTm [13]: -1.3 °C
- binding [14]: no
- ΔTm [15]: -1.5 °C
- Ka [16]: 4.6 × 10^5 ± 0.5 M^−1
Structure (SMILES): CCC(CC)n1c(=O)c2ccc3sc4ccc5ccccc5c4c4ccc(c1=O)c2c34
